Laboratory results published in patent publication US11266662B2, “Ganaxolone for use in prophylaxis and treatment of postpartum depression” (Marinus Pharmaceuticals, Inc., priority 2018, dated 2022).

How the values were obtained:
[1] = target: human ether-a-go-go related gene (hERG) receptor (Homo sapiens, UniProt Q12809); assay: hERG interaction (safety pharmacology); conditions: measured concentration of 70 nM (n=2)
[2] = test system: subjects; assay: All completed placebo-controlled clinical studies of ganaxolone: adverse events; type: in vivo, human
Experimental: As of Oct. 10, 2017, 1557 unique subjects have received ganaxolone ranging in duration from 1 day to more than 2 years using doses from 50 to 2000 mg/day in completed studies. Of these subjects, 1527 subjects received oral ganaxolone and 30 subjects received intravenous (IV ganaxolone).
In 20 completed Phase 1 studies, 319 healthy subjects received ganaxolone oral doses of 50 to 2,000 mg/day for periods of up to 2 weeks or IV bolus doses ranging from 10 to 30 mg over durations of 2 minutes to 1 hour or a bolus dose of 6 mg over 5 minutes followed with a continuous infusion of 20 mg per hour for 4 hours.
In the 20 completed Phase 2/3 clinical studies, 1238 unique subjects have received oral ganaxolone in studies of adult subjects with epilepsy, pediatric subjects with seizure disorders, pediatric subjects with FXS, adult subjects with PTSD, and adult subjects with migraine.

[3] = test system: female rats; assay: Pulmonary safety pharmacology in female rats; type: in vivo, rat; conditions: doses up to 40 mg/kg
Experimental: (§1) Safety pharmacology studies were conducted with ganaxolone.

[4] = test system: dogs; assay: Cardiovascular safety pharmacology in dogs, single dose; type: in vivo, dog; conditions: single dose of up to 15 mg/kg
Experimental: as §1

[5] = as above; type: in vivo, dog; conditions: dog, in vivo, single dose of up to 15 mg/kg
Experimental: as §1

[6] = test system: rabbits; assay: Local tolerance study in rabbits; conditions: rabbit, in vivo
[7] = test system: dogs; assay: 1-year (chronic oral) dog toxicity study
[8] = 1-year (chronic oral) dog toxicity study; conditions: dog, in vivo, oral, 15 mg/kg/day
[9] = test system: women with postpartum depression; assay: Mean change in HAM-D score, ganaxolone versus placebo treatment groups; type: in vivo, human; conditions: worded as 'in certain embodiments'
Source text: The Hamilton Depression Rating Scale (HAM-D) is a commonly-used semi-structured clinician-rated instrument which assesses the range of symptoms that are most frequently observed in subjects with major depression. HAM-D has undergone a considerable amount of psychometric study and is accepted as a valid standard of symptom outcome assessment in studies of major depression. In the examples disclosed herein HAM-D was scored using the original 17-item HAM-D scale (HAM-D17).
Administration of ganaxolone in accordance with the methods of the present invention may provide a mean change in HAM-D score (i.e., least-squares (LS) mean reduction) at about 6 hours and/or at about 12 hours and/or about 24 hours (about 1 day) and/or about 48 hours (about 2 days) and/or about 60 hours (about 2.5 days) and/or about 72 hours (about 3 days) and/or about 11 days and/or about 30 days and/or about 34 days of from about 2 to about 17. In the preferred embodiments, the mean change in HAM-D score is greater than placebo.
The primary efficacy endpoint is HAM-D17 total score change from baseline to 60 hours post-infusion (on Day 3) for Cohorts 1-3 and to Day 29 for Cohort 6. The primary analysis in each cohort is done using the mITT set. Although the trial is not powered for inferential analysis and there is no consideration for control of type 1 error across multiple cohorts, a clinically meaningful numeric difference in means of 3-4 points, based on mITT analysis, between ganaxalone and placebo treatment groups is considered an indication of acceptable efficacy and is be the most influential outcome in the overall assessment of the efficacy of ganaxolone in treating PPD.

[10] = test system: cytochrome P450 (CYP) isoenzymes 1A1/2 and 2B1/2; assay: Induction of cytochrome P450 isoenzymes in rats; conditions: female rats but not males
[11] = human plasma following oral administration; cited from earlier work
[12] = test system: children and adolescents with fragile X syndrome; conditions: in those with higher baseline anxiety; Ligsay et al, 2017; cited from earlier work

Chain of human ether-a-go-go related gene (hERG) receptor (Q12809 whole entry): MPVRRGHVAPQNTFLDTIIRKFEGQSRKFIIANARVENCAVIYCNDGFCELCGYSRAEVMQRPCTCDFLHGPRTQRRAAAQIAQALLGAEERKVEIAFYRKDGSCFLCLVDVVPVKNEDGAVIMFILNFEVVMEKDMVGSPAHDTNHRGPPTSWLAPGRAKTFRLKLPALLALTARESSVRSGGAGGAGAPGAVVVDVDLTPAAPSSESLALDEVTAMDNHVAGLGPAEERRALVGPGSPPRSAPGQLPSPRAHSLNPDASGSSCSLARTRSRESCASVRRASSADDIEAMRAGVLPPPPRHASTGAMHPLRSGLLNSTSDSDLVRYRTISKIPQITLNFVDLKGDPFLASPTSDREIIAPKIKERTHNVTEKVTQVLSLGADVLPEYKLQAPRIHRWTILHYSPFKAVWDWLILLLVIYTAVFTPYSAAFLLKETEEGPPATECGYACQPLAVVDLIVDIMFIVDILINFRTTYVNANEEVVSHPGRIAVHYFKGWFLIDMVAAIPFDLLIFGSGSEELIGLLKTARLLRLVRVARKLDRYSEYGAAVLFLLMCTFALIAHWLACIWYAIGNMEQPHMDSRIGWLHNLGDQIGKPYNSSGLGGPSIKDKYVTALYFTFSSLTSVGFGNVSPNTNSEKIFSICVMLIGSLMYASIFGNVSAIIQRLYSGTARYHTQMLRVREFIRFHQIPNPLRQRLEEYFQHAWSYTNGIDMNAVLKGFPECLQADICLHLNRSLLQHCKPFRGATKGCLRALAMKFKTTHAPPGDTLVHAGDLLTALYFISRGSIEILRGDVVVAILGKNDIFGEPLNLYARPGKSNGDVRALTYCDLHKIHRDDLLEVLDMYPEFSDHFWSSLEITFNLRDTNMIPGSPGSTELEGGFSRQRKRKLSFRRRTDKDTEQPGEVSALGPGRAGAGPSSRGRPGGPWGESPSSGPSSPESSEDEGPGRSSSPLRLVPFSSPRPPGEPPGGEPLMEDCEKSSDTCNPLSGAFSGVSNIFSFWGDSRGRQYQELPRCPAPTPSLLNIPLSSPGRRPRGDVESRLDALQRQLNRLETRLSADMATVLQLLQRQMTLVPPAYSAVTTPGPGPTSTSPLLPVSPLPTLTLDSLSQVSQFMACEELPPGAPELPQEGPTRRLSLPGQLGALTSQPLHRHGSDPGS

In the case of `CC(=O)[C@H]1CC[C@H]2[C@@H]3CC[C@H]4C[C@](C)(O)CC[C@]4(C)[C@H]3CC[C@]12C` [ganaxolone, 3α-hydroxy-3β-methyl-5α-pregnan-20-one], the “Interaction with hERG receptor” value [1] is reported as “did not interact”, the Incidence of syncope ([2]; 2/993 subjects) is reported as 0.2% and the “Discontinuations due to rash” value ([2]; 6/993) is reported as 0.6%. For the same molecule, the “Subjects with at least 1 treatment emergent adverse event (TEAE)” value ([2]; 613/993 subjects) was 61.7%, the “Subjects with elevated LFTs (>3×ULN AST and/or ALT)” value ([2]; Phase 1, 2, and 3 placebo-controlled studies) was 0.32% and the “Events of loss of consciousness” value ([2]; all placebo-controlled studies) was “no events of loss of consciousness related to ganaxolone”. For the same molecule, the TEAE dizziness ([2]; human, in vivo) was 13.0%, the TEAE fatigue ([2]; human, in vivo) was 9.7% and the TEAE headache ([2]; human, in vivo) was 5.5%. The TEAE somnolence ([2]; human, in vivo) was 22.0%, the Pulmonary effects [3] was “No pulmonary effects were observed” and the “Effect on cardiovascular parameters” value [4] was “no effect on cardiovascular parameters”. For the same molecule, the AUC(0-t) ([5]; read-out: AUC(0-24)) was 10000 ng·h/mL, the Cmax ([5]; read-out: Maximum concentration [Cmax]) was 1000 ng/mL and the Local tolerance [6] was “no findings”. For the same molecule, the “Findings associated with mean Cmax greater than 1500 ng/mL” value ([7]; 10 and 15 mg/kg/day) was “increased weight and total plasma cholesterol levels”, the “ECG / heart rate finding” value ([7]; after 3 months of dosing, in 4 animals (>190 bpm)) was “transient sinus tachycardia” and the Cmax [8] was greater than 1500 ng/mL. The “Difference between ganaxolone and placebo treatment groups in mean change in HAM-D score” value ([9]; 12 hours) was 0.7, the “Difference between ganaxolone and placebo treatment groups in mean change in HAM-D score” value ([9]; 24 hours) was 1.5 and the “Difference between ganaxolone and placebo treatment groups in mean change in HAM-D score” value ([9]; 48 hours) was 5.6. For the same molecule, the “Difference between ganaxolone and placebo treatment groups in mean change in HAM-D score” value ([9]; 60 hours) was 4.2, the “Difference between ganaxolone and placebo treatment groups in mean change in HAM-D score” value ([9]; 72 hours) was 2.9 and the “Difference between ganaxolone and placebo treatment groups in mean change in HAM-D score” value ([9]; 11 days) was 5.9. The “Difference between ganaxolone and placebo treatment groups in mean change in HAM-D score” value ([9]; 34 days) was 4.1, the “Induction of CYP isoenzymes 1A1/2 and 2B1/2” value [10] was “induces” and the Half-life [11] was “approximately 20 hours”. For the same molecule, the “Anxiety, hyperactivity and attention” value [12] was “reduced anxiety and hyperactivity and improved attention”.
